Assay results published in patent publication US9540361B2, “N-substituted azetidine derivatives” (Merck Sharp & Dohme B.V., priority 2010, dated 2017).

Legend:
[1] = target: T1, human estrogen receptor α (hERα) (Homo sapiens, UniProt P03372); assay: antagonistic activity in CHO cells co-transfected with hERα, rat oxytocin promoter and luciferase reporter gene; format: cell-based; conditions: antagonism of 17β-estradiol-induced transactivation, CHO-hERα-RO-LUC; read-out: ERα pIC50 (converted)
T1 sequence (P03372 1-595): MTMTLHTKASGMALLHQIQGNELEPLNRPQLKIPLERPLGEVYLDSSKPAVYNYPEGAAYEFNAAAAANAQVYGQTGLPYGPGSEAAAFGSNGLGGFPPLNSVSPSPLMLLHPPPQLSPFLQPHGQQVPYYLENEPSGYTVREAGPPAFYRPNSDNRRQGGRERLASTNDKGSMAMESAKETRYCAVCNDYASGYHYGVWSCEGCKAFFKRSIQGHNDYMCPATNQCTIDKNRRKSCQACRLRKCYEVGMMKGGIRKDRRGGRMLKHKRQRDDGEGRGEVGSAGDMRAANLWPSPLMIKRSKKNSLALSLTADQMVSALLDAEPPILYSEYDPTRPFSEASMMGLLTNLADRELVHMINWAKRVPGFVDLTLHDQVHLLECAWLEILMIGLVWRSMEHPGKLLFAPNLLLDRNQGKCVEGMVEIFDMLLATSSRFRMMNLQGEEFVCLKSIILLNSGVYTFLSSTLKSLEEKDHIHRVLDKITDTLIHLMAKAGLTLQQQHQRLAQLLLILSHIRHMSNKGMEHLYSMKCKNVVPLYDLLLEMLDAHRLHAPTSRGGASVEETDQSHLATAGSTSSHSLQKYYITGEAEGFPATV
Experimental: The antagonistic activity of compounds on the estrogen receptors was determined in an in vitro bioassay with recombinant Chinese Hamster Ovary (CHO) cells stably co-transfected with the human estrogen receptor α (hERα), the rat oxytocin promoter (RO) and the luciferase reporter gene (LUC). […] The antagonistic efficacy, i.e. the amount of maximal inhibition of the 17β-estradiol activated receptor by a compound, is expressed as fraction relative to the maximal inhibition as induced by the standard anti-estrogen ICI 164,384 (efficacy test compound=(maximal inhibition test compound/maximal inhibition ICI 164,384)). A more detailed description of the methodology can be found in De Gooyer et al., Steroids, 68 (2003) 21-30.

estrogen receptor alpha = target: T2, estrogen receptor alpha (Homo sapiens, UniProt P03372); assay: ERα downregulation assay in T47D breast cancer cells (ERα ELISA); format: cell-based; conditions: downregulation of ERα relative to fulvestrant (100%), 1E-5 M, 24 hours, negative = upregulation
T2 construct: endogenous in cells; host or cells: T47D human breast cancer cells (ATCC)
T2 sequence (P03372 1-595): T1 sequence (P03372 1-595)
From the text: More specifically, this in vitro bioassay is used to determine the efficacy (fraction of maximal response) of the compound by comparing the data for this compound with those of the reference compound ICI 182,780 (fulvestrant) in the same test (downregulation of fulvestrant is 100% by definition).
A more detailed description of the method used is as follows.
Cell culture. The human epithelial breast cancer cell line T47D (origin: ATCC) was routinely maintained in a 1:1 mixture of Ham's F12 medium and Dulbecco's Modified Eagle Medium (Gibco) enriched with 5% fetal calf serum (Hyclone), 10 mM HEPES pH 7.5 and 100 μg/ml penicillin-streptomycin solution. Cells were grown in 80 cm2 culture flasks (Nunc, Roskilde, Denmark) and kept in an atmosphere of 5% CO2-95% air at 37 degrees Celsius. Cells were subcultured when they reached about 80-90% confluence, resulting in one passage a week. Subculturing includes detaching the cells using Cell Dissociation Buffer [Sigma] and subsequent inoculation at 1:5 or 1:10 in a new Roux flask (175 cc) and\or plating out in Nunclon™ Surface 96 wells microplates. The culture medium needs to be refreshed on day three or four of the incubation, if applicable.
Determination of ERα protein levels: T47D cells in the microplates are incubated with 1E-5 M test compound for 24 hours. The supernatant in all wells is carefully aspirated. Cells are lysed on the microplate and cell lysates are probed for ERα content using an ERα ELISA assay kit (Active Motif).

SMILES | IC50 [1] | DR (%) (estrogen receptor alpha)
CCCN1CC(Oc2ccc(-c3c(-c4c(C)noc4C)noc3-c3ccc(O)cc3)cc2)C1.Cl [compound 7af, 4-(3′,5′-dimethyl-4-(4-(1-propylazetidin-3-yloxy)phenyl)-3,4′-biisoxazol-5-yl)-phenol hydrochloride] | 3.16 nM | 92%
CCCN1CC(Oc2ccc(C(=O)c3c(-c4cc(F)cc(F)c4)sc4cc(O)ccc34)cc2)C1.Cl [compound 7t, (2-(3,5-difluorophenyl)-6-hydroxybenzo[b]thiophen-3-yl)(4-(1-propylazetidin-3-yloxy)phenyl)methanone hydrochloride] | 2 nM | 98%
CCN1CC(Oc2ccc(C(=O)c3c(-c4ccc(O)cc4)sc4cc(O)ccc34)cc2)C1.O=C(O)C(F)(F)F [compound 7g, (4-(1-ethylazetidin-3-yloxy)phenyl)(6-hydroxy-2-(4-hydroxyphenyl)benzo[b]-thiophen-3-yl)methanone 2,2,2-trifluoroacetate] | 3.98 nM | 46%
CCCN1CC(Oc2ccc(C(=O)c3c(-c4sccc4C)noc3-c3ccc(O)cc3)cc2)C1.Cl [compound 7an, (5-(4-hydroxyphenyl)-3-(3-methylthiophen-2-yl)isoxazol-4-yl)(4-(1-propylazetidin-3-yloxy)phenyl)methanone hydrochloride] | 2 nM | 98%
CCCN1CC(Oc2ccc([C@H]3c4ccc(OC)cc4OC(C)(C)[C@@H]3c3ccccc3)cc2)C1.O=C(O)C(F)(F)F [compound 6o, 3-(4-((3S,4S)-7-methoxy-2,2-dimethyl-3-phenylchroman-4-yl)phenoxy)-1-propylazetidine 2,2,2-trifluoroacetate] | 25.1 nM | 75%
C=C(c1ccc(OC2CN(CCC)C2)cc1)c1c(-c2ccccc2Cl)noc1-c1ccc(O)cc1 [compound 7ax, 4-(3-(2-chlorophenyl)-4-(1-(4-(1-propylazetidin-3-yloxy)phenyl)vinyl)isoxazol-5-yl)phenol] | 0.794 nM | 33%
CCCN1CC(Oc2ccc(C(=O)c3c(-c4cccc(O)c4)noc3-c3ccccc3F)cc2)C1.Cl [compound 7ba, (5-(2-fluorophenyl)-3-(3-hydroxyphenyl)isoxazol-4-yl)(4-(1-propylazetidin-3-yloxy)phenyl)methanone hydrochloride] | 15.8 nM | 51%
Cl.O=C(c1ccc(OC2CN(CC3CCOC3)C2)cc1)c1c(-c2ccc(O)cc2)sc2cc(O)ccc12 (stereo not drawn) [compound 7o, (6-hydroxy-2-(4-hydroxyphenyl)benzo[b]thiophen-3-yl)(4-(1-((tetrahydrofuran-3-yl)methyl)azetidin-3-yloxy)phenyl)methanone hydrochloride] | 5.01 nM | 73%
CCCN1CC(Oc2ccc(C(=O)c3c(-c4ccccc4Cl)noc3-c3cccc(O)c3)cc2)C1.Cl [compound 7ap, (3-(2-chlorophenyl)-5-(3-hydroxyphenyl)isoxazol-4-yl)(4-(1-propylazetidin-3-yloxy)phenyl)methanone hydrochloride] | 2 nM | 90%
CCCN1CC(Oc2ccc(-c3c(-c4snnc4C)noc3-c3ccc(O)cc3)cc2)C1.Cl [compound 7ae, 4-(3-(4-methyl-1,2,3-thiadiazol-5-yl)-4-(4-(1-propylazetidin-3-yloxy)phenyl)isoxazol-5-yl)phenol hydrochloride] | 12.6 nM | 99%
CCCN1CC(Oc2ccc(C(=O)c3c(-c4ccccc4)noc3-c3ccc(O)cc3)cc2)C1.Cl [compound 7ai, (5-(4-hydroxyphenyl)-3-phenylisoxazol-4-yl)(4-(1-propylazetidin-3-yloxy)-phenyl)methanone hydrochloride] | 7.94 nM | 96%
CCCN1CC(Oc2ccc(C(=O)c3c(-c4ccccc4Cl)noc3-c3cc[nH]c3)cc2)C1.O=C(O)C(F)(F)F [compound 7aq, (3-(2-chlorophenyl)-5-(1H-pyrrol-3-yl)isoxazol-4-yl)(4-(1-propylazetidin-3-yl-oxy)phenyl)methanone 2,2,2-trifluoroacetate] | 25.1 nM | 78%
